Results published in PubChem BioAssay AID1794806 (Yongcheng Song lab at Baylor College of Medicine, 2022).
The source made the active and inactive calls.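 The calls were made as follows: active = EC50 under 50 µM in a live-cell viability test; inactive = the rest.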

System: HeLa proliferation, XTT absorbance
Test: antiproliferative effect on HeLa control cancer cells – cell-based, XTT absorbance, selectivity assay for AHD inhibitor project, dose response (AID 1794806)

Structure (SMILES) | EC50
O=C(NCC1CCNCC1)c1cc2ccc(-c3ccc(N4CCCCC4)cc3)cc2s1 | 50 µM
O=C(NCC1CCNCC1)c1cc2cc(-c3ccc(N4CCCCC4)cc3)ccc2s1 | 25 µM
O=C(NCC1CCNCC1)c1cc2cc(-c3ccc(N4CCCCC4)cc3)ccc2[nH]1 | > 51 µM (inactive)
O=C(NCC1CCNCC1)c1cc2ccc(-c3ccc(N4CCCC4)cc3)cc2s1 | 50 µM
O=C(NCC1CCNCC1)c1c[nH]c2cc(-c3ccc(N4CCCCC4)cc3)ccc12 | > 51 µM (inactive)
O=C(NCC1CCNCC1)c1coc2cc(-c3ccc(N4CCCCC4)cc3)ccc12 | 50 µM
NC(=O)c1ccc(-c2ccc3cc(C(=O)NCC4CCNCC4)sc3c2)cc1 | > 51 µM (inactive)
O=C(NCC1CCNCC1)c1c[nH]c2cc(-c3ccc(N4CCCC4)cc3)ccc12 | > 51 µM (inactive)
NCc1ccc(-c2ccc3cc(C(=O)NCC4CCNCC4)oc3c2)cc1 | > 51 µM (inactive)
O=C(NCC1CCNCC1)c1cc2cc(-c3cn[nH]c3)ccc2[nH]1 | > 51 µM (inactive)
